US9862711B2, “Pyrazine derivatives as phosphatidylinositol 3-kinase inhibitors” (NOVARTIS AG, priority 2014, dated 2018)

biological target: PI 3-kinase beta (Homo sapiens (Human), UniProt P42338); assay: Kinase Glo Luminescent Kinase Assay (Assay B); type: biochemical; details: 1 μM ATP, read-out: Assay B PI3Kβ IC50
Source text: Kinase Glo Luminescent Kinase Assay (Kglo) for PI 3-Kinase Alpha (A), Pb 3-Kinase Beta (B), Vps34 (C), PI 4-Kinase Beta (D)
The luminescence-based ATP detection reagent KinaseGlo was obtained from Promega, (Cat. No. V6714, Lot No. 236161) through Catalys, Wallisellen, Switzerland. L-alpha-phosphatidylinositol (PI, liver, bovine) was obtained from Avanti Polar Lipid (Cat. No. 840042C, Lot#LPI-274), Phosphatidylinositol-4,5-bisphosphate (PIP(4,5)2) was also obtained from Avanti Polar Lipid (Cat. No. 840046X). L-α-Phosphatidylserine (PS) was obtained from Avanti Polar Lipid (Cat. No. 840032C), n-Octylglucoside from Avanti Polar Lipid (Cat. No. 10634425001). Luminescence is a well established readout to determine ATP concentrations and can thus be used to follow the activity of many kinases regardless of their substrate. The Kinase Glo Luminescent Kinase Assay (Promega, Madison/WI, USA) is a homogeneous HTS method of measuring kinase activity by quantifying the amount of ATP remaining in solution following a kinase reaction.
50 nL of compound dilutions were dispensed onto black 384-well low volume Non Binding Styrene (NBS) plates (Costar Cat. No. NBS#3676). L-α-phosphatidylinositol (PI), provided as 10 mg/ml solution in methanol, was transferred into a glass tube and dried under a nitrogen beam. It was then resuspended in 3% OctylGlucoside (1-O-n-octyl-beta-D-glucopyranoside) by vortexing and stored at 4° C. 5 μL of a mix of PI/OctylGlucoside with the PI 3-kinase alpha and PI 3-kinase beta subtypes, or Vps34 or PI 4-kinase beta were added. Kinase reactions were started by the addition of 5 μl of an ATP-mix containing in a final volume 10 μL 10 mM TRIS-HCl pH 7.5, 3 mM MgCl2, 50 mM NaCl, 0.05% CHAPS, 1 mM DTT and 1 μM ATP at room temperature. Reactions were stopped with 10 μl of KinaseGlo and plates were read 10 mins later in a Synergy2 reader using an integration time of 0.1 seconds per well. 2.5 μM of NVP-BGT226 (1-(3-(trifluoromethyl)-4-(piperazin-1-yl)phenyl)-8-(6-methoxypyridin-3-yl)-3-methyl-1H-imidazo[4,5-c]quinolin-2(3H)-one) was added to the assay plates to generate the 100% inhibition of the kinase reaction, and the 0% inhibition was given by the solvent vehicle (90% DMSO in water). (1-(3-(trifluoromethyl)-4-(piperazin-1-yl)phenyl)-8-(6-methoxypyridin-3-yl)-3-methyl-1H-imidazo[4,5-c]quinolin-2(3H)-one) was used as a reference compound and included in all assay plates in the form of 16 dilution points in duplicate.
IC50 values of the percentage inhibition of each compound at 8 concentrations (10, 3.0, 1.0, 0.3, 0.1, 0.030, 0.010 and 0.003 μM) n=2 were derived by fitting a sigmoidal dose-response curve to a plot of assay readout over inhibitor concentration as described. All fits were performed with the program XLfit4 (ID Business Solutions, Guildford, UK).

Sequence of PI 3-kinase beta (P42338 2-1070): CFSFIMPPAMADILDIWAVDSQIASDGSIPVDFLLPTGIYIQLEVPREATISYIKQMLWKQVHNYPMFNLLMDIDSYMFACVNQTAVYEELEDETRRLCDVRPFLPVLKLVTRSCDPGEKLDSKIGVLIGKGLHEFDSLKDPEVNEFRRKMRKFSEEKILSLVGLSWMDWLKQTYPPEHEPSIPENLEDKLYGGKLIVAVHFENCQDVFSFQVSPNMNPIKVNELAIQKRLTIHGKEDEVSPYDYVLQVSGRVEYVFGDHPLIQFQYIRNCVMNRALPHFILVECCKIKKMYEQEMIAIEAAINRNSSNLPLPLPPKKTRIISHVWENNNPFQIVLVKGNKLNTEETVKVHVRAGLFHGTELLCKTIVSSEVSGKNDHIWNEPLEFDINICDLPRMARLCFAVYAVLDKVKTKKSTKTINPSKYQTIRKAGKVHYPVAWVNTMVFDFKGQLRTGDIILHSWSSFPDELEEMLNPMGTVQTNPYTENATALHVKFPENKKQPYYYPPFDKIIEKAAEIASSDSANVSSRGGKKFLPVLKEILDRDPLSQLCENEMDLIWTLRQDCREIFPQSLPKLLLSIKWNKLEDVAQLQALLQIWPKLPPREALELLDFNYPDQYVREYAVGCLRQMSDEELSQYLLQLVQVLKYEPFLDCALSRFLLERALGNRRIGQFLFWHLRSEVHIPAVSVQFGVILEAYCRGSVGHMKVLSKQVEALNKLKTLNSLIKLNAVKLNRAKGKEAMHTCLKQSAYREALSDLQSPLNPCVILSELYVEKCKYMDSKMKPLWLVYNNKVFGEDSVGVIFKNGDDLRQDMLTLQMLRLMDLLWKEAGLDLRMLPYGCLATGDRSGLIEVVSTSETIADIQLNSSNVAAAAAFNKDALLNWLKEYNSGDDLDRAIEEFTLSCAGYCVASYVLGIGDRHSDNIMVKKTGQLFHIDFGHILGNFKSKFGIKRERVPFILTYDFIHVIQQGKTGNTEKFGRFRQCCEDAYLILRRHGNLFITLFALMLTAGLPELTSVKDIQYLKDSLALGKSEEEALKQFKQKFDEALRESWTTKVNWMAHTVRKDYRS

| Structure (SMILES) | IC50 [µM] |
| --- | --- |
| Cc1ncc(-c2cncc(-c3cc(S(=O)(=O)NCCCO)ccc3C)n2)s1 [Example 1, N-(3-Hydroxy-propyl)-4-methyl-3-[6-(2-methyl-thiazol-5-yl)-pyrazin-2-yl]-benzenesulfonamide] | 6.16 |
| Cc1ccc(S(=O)(=O)NCC(C)(C)O)cc1-c1cncc(-c2cn(C)nc2C)n1 [Example 2, 3-[6-(1,3-Dimethyl-1H-pyrazol-4-yl)-pyrazin-2-yl]-N-(2-hydroxy-2-methyl-propyl)-4-methyl-benzenesulfonamide] | 0.71 |
| Cc1ccc(S(=O)(=O)NCCC(C)(C)O)cc1-c1cncc(-c2cn(C)nc2C)n1 [Example 3, 3-[6-(1,3-Dimethyl-1H-pyrazol-4-yl)-pyrazin-2-yl]-N-(3-hydroxy-3-methyl-butyl)-4-methyl-benzenesulfonamide] | 1.45 |
| Cc1ccc(S(=O)(=O)NCC2(C)COC2)cc1-c1cncc(-c2cn(C)nc2C)n1 [Example 4, Trans 3-[6-(1,3-Dimethyl-1H-pyrazol-4-yl)-pyrazin-2-yl]-4-methyl-N-(3-methyl-oxetan-3-ylmethyl)-benzenesulfonamide] | 0.68 |
| Cc1ncc(-c2cncc(-c3cc(S(=O)(=O)N[C@H]4CC[C@H](O)CC4)ccc3C)n2)s1 [Example 5, Trans N-(4-Hydroxycyclohexyl)-4-methyl-3-(6-(2-methylthiazol-5-yl)pyrazin-2-yl)benzenesulfonamide] | 1.12 |
| Cc1ccc(S(=O)(=O)NCC(C)(C)CO)cc1-c1cncc(-c2cn(C)nc2C)n1 [Example 8, 3-[6-(1,3-Dimethyl-1H-pyrazol-4-yl)-pyrazin-2-yl]-N-(3-hydroxy-2,2-dimethyl-propyl)-4-methyl-benzenesulfonamide] | 0.68 |
| Cc1ccc(S(=O)(=O)NCCC(C)(C)O)cc1-c1cncc(-c2cnn(CCN3CCOCC3)c2)n1 [Example 9, N-(3-Hydroxy-3-methyl-butyl)-4-methyl-3-{6-[1-(2-morpholin-4-yl-ethyl)-1H-pyrazol-4-yl]-pyrazin-2-yl}-benzenesulfonamide] | > 9.1 |
| Cc1ccc(S(=O)(=O)NCCC(C)(C)O)cc1-c1cncc(-c2cn(CCN3CCOCC3)nc2C)n1 [Example 10, N-(3-Hydroxy-3-methyl-butyl)-4-methyl-3-{6-[3-methyl-1-(2-morpholin-4-yl-ethyl)-1H-pyrazol-4-yl]-pyrazin-2-yl}-benzenesulfonamide] | 8.5 |
| Cc1ccc(S(=O)(=O)N[C@H]2CC[C@H](O)CC2)cc1-c1cncc(-c2cccnc2)n1 [Example 11, Trans N-(4-Hydroxy-cyclohexyl)-4-methyl-3-(6-pyridin-3-yl-pyrazin-2-yl)-benzenesulfonamide] | 3.93 |
